These results are taken from patent US20190375708A1 (VenatoRx Pharmaceuticals, Inc., priority 2018, published 2019).

The subject of data set [1] is HBV replication in HepAD38 cells. The data set is described as follows: Anti-HBV replication assay in HepAD38 cells (QPCR of extracellular HBV DNA). Type of data set: cell-based, HBV (genotype D, serotype ayw). The note with it: Hepatitis B virus, 168 h, 7 days incubation, extracellular HBV DNA by QPCR, read-out: Anti-HBV EC50. Put shortly:
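Steps: seed HepAD38 overnight without tetracycline; refresh medium and add 1 log10 serial dilutions ([…]); incubate 7 days at 37 °C; quantify supernatant HBV DNA by QPCR; derive EC50 from a 4-parameter dose-response fit.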

A short description of data set [2]: In vitro cytotoxicity assay (MTT cell viability) in HepG2 cells. Type of data set: cell-based, human. The settings on record: human. Put shortly:
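Using MTT conversion as the viability measure, HepG2 cells were incubated with compounds for 7 days (30 μM to 1.0 nM). Absorbance at 492 nm was normalized to vehicle and fitted to give CC50.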

Turning to `Cc1cc(NC(=O)c2c(C)c(C(=O)C(=O)NCC(C)(O)c3cccs3)n(C)c2C)ccc1F` (stereo not shown) [Example 647, N-(4-fluoro-3-methylphenyl)-5-(2-((2-hydroxy-2-(thiophen-2-yl)propyl)amino)-2-oxoacetyl)-1,2,4-trimethyl-1H-pyrrole-3-carboxamide], in data set [1], the EC50 was under 50 nM. The same compound showed a CC50 at 7 days in data set [2] of over 30 µM.
Turning to `Cc1cc(NC(=O)c2c(C)c(C(=O)C(=O)NCC(O)c3ccsc3)n(C)c2C)ccc1F` (stereo not shown) [Example 648, N-(4-fluoro-3-methylphenyl)-5-(2-((2-hydroxy-22-(thiophen-3-yl)ethyl)amino)-2-oxoacetyl)-1,2,4-trimethyl-1H-pyrrole-3-carboxamide], in data set [1], the EC50 was under 50 nM. For the same compound, the CC50 at 7 days in data set [2] is over 30 µM.
Consider `Cc1cc(NC(=O)c2c(C)c(C(=O)C(=O)NCCN3C(=O)CSC3=O)n(C)c2C)ccc1F` [Example 649, 5-(2-((2-(2,4-dioxothiazolidin-3-yl)ethyl)amino)-2-oxoacetyl)-N-(4-fluoro-3-methylphenyl)-1,2,4-trimethyl-1H-pyrrole-3-carboxamide], for which the EC50 in data set [1] is under 50 nM. The CC50 at 7 days in data set [2] is over 30 µM.
Regarding `Cc1cc(NC(=O)c2c(C)c(C(=O)C(=O)NCCc3c(C)[nH][nH]c3=O)n(C)c2C)ccc1F` [Example 650, N-(4-fluoro-3-methylphenyl)-1,2,4-trimethyl-5-(2-((2-(5-methyl-3-oxo-2,3-dihdyro-1H-pyrazol-4-yl)ethyl)amino)-2-oxoacetyl)-1H-pyrrole-3-carboxamide], the EC50 in data set [1] was 50 to 499 nM. In data set [2], this compound returned a CC50 at 7 days of over 30 µM.
For the compound `Cc1cc(NC(=O)c2c(C)c(C(=O)C(=O)NC(C)(C)CN3CCN(C)CC3)n(C)c2C)ccc1F` [Example 651, N-(4-fluoro-3-methylphenyl)-1,2,4-trimethyl-5-(2-((2-methyl-1-(4-methylpiperazin-1-yl)propan-2-yl)amino)-2-oxoacetyl)-1H-pyrrole-3-carboxamide], in data set [1], the EC50 is under 50 nM. The CC50 at 7 days in data set [2] is over 30 µM.
Turning to `Cc1cc(NC(=O)c2c(C)c(C(=O)C(=O)NC3CCN(C4COC4)CC3)n(C)c2C)ccc1F` [Example 652, N-(4-fluoro-3-methylphenyl)-1,2,4-trimethyl-5-(2-((1-(oxetan-3-yl)piperidin-4-yl)amino)-2-oxoacetyl)-1H-pyrrole-3-carboxamide], the EC50 in data set [1] is under 50 nM. In addition, the CC50 at 7 days in data set [2] is over 30 µM.
In the case of `Cc1cc(NC(=O)c2c(C)c(C(=O)C(=O)NC3CCN(C4CCOCC4)CC3)n(C)c2C)ccc1F` [Example 653, N-(4-fluoro-3-methylphenyl)-1,2,4-trimethyl-5-(2-oxo-2-((1-(tetrahydro-2H-pyran-4-yl)piperidin-4-yl)mino)acetyl)-1H-pyrrole-3-carboxamide], the EC50 in data set [1] fell in the range of 50 to 499 nM. The same compound gave a CC50 at 7 days in data set [2] of over 30 µM.
`Cc1cc(NC(=O)c2c(C)c(C(=O)C(=O)NC3CCN(C4CCSCC4)CC3)n(C)c2C)ccc1F` [Example 654, N-(4-fluoro-3-methylphenyl)-1,2,4-trimethyl-5-(2-oxo-2-((1-(tetrahydro-2H-thiopyran-4-yl)piperidin-4-yl)amino)acetyl)-1H-pyrrole-3-carboxamide]: the EC50 in data set [1] is under 50 nM. In addition, in data set [2], the 50% cytotoxic concentration (CC50) at 7 days was over 30 µM.
Regarding `Cc1cc(NC(=O)c2c(C)c(C(=O)C(=O)NC3CCN(c4cccs4)CC3)n(C)c2C)ccc1F` [Example 655], the EC50 in data set [1] was in the range of 50 to 499 nM. Further, the CC50 at 7 days in data set [2] is over 30 µM.
For `Cc1cc(NC(=O)c2c(C)c(C(=O)C(=O)NC3CCN(c4nccs4)CC3)n(C)c2C)ccc1F` [Example 656], in data set [1], the concentration for a half-maximal effect (EC50) was under 50 nM. This compound also had a CC50 at 7 days in data set [2] of 5 to 30 µM.
For `Cc1cc(NC(=O)c2c(C)c(C(=O)C(=O)NC3CCN(c4ccccn4)CC3)n(C)c2C)ccc1F` [Example 657, N-(44-fluoro-3-methylphenyl)-1,2,4-trimethyl-5-(2-oxo-2-((1-(pyridin-2-yl)piperidin-4-yl)amino)acetyl)-1H-pyrrole-3-carboxamide], the EC50 in data set [1] was under 50 nM. This compound also had a CC50 at 7 days in data set [2] of 5 to 30 µM.
As for `Cc1cc(NC(=O)c2c(C)c(C(=O)C(=O)NC3CCN(c4ncccn4)CC3)n(C)c2C)ccc1F` [Example 658], in data set [1], the EC50 is under 50 nM. This compound also came in with a CC50 at 7 days in data set [2] of 5 to 30 µM.
For `Cc1cc(NC(=O)c2c(C)c(C(=O)C(=O)NC3CCN(c4cnccn4)CC3)n(C)c2C)ccc1F` [Example 659, N-(4-fluoro-3-methylphenyl)-1,2,4-trimethyl-5-(2-oxo-2-((1-(pyrazin-2-yl)piperidin-4-yl)amino)acetyl)-1H-pyrrole-3-carboxamide], the concentration giving a half-maximal response (EC50) in data set [1] is under 50 nM. The compound also came in with a 50% cytotoxic concentration (CC50) at 7 days in data set [2] of over 30 µM.
As for `Cc1cc(NC(=O)c2c(C)c(C(=O)C(=O)NC3CCN(c4cccnn4)CC3)n(C)c2C)ccc1F` [Example 660, N-(4-fluoro-3-methylphenyl)-1,2,4-trimethyl-5-(2-oxo-2-((1-(pyridazin-3-yl)piperidin-4-yl)amino)acetyl)-1H-pyrrole-3-carboxamide], the EC50 in data set [1] was under 50 nM. In data set [2], this compound displayed a CC50 at 7 days of over 30 µM.
Turning to `Cc1cc(NC(=O)c2c(C)c(C(=O)C(=O)NC3(CN4CCN(c5ccc(Cl)cc5)CC4)CC3)n(C)c2C)ccc1F` [Example 661, 5-(2-((1-((4-(4-chlorophenyl)piperazin-1-yl)methyl)cyclopropyl)amino)-2-oxoacetyl)-N-(4-fluoro-3-methylphenyl)-1,2,4-trimethyl-1H-pyrrole-3-carboxamide], in data set [1], the EC50 is under 50 nM. Further, the CC50 at 7 days in data set [2] was 5 to 30 µM.
Take `Cc1cc(NC(=O)c2c(C)c(C(=O)C(=O)NC3CCN(c4ccncc4)CC3)n(C)c2C)ccc1F` [Example 662, N-(4-fluoro-3-methylphenyl)-1,2,4-trimethyl-5-(2-oxo-2-((1-(pyridin-4-yl)piperidin-4-yl)amino)acetyl)-1H-pyrrole-3-carboxamide]: the EC50 in data set [1] is under 50 nM. In data set [2], this compound displayed a CC50 at 7 days of over 30 µM.
Take `Cc1cc(NC(=O)c2c(C)c(C(=O)C(=O)NC3CCN(c4cccnc4)CC3)n(C)c2C)ccc1F` [Example 663, N-(4-fluoro-3-methylphenyl)-1,2,4-trimethyl-5-(2-oxo-2-((1-(pyridin-3-yl)piperidin-4-yl)amino)acetyl)-1H-pyrrole-3-carboxamide]: the EC50 in data set [1] was under 50 nM. The CC50 at 7 days in data set [2] is over 30 µM.
The like results for `CC(=O)N1CC[C@@H](NC(=O)C(=O)c2c(C)c(C(=O)Nc3ccc(F)c(C)c3)c(C)n2C)C1` [Example 664, (R)-5-(2-((1-acetylpyrrolidin-3-yl)amino)-2-oxoacetyl)-N-(4-fluoro-3-methylphenyl)-1,2,4-trimethyl-1H-pyrrole-3-carboxamide] were, in that order, under 50 nM and over 30 µM.
Take `Cc1cc(NC(=O)c2c(C)c(C(=O)C(=O)N[C@@H]3CCN(S(C)(=O)=O)C3)n(C)c2C)ccc1F` [Example 665, (R)-N-(4-fluoro-3-methylphenyl)-1,2,4-trimethyl-5-(2-((1-(methylsulfonyl)pyrrolidin-3-yl)amino)-2-oxoacetyl)-1H-pyrrole-3-carboxamide]: the EC50 in data set [1] was under 50 nM. The compound further registered a CC50 at 7 days in data set [2] of 5 to 30 µM.
In the same order, the values of `CC(=O)N1CC[C@H](NC(=O)C(=O)c2c(C)c(C(=O)Nc3ccc(F)c(C)c3)c(C)n2C)C1` [Example 666, (S)-5-(2-((1-acetylpyrrolidin-3-yl)amino)-2-oxoacetyl)-N-(4-fluoro-3-methylphenyl)-1,2,4-trimethyl-1H-pyrrole-3-carboxamide] are under 50 nM and over 30 µM.
`Cc1cc(NC(=O)c2c(C)c(C(=O)C(=O)N[C@H]3CCN(S(C)(=O)=O)C3)n(C)c2C)ccc1F` [Example 667, (S)-N-(4-fluoro-3-methylphenyl)-1,2,4-trimethyl-5-(2-((1-(methylsulfonyl)pyrrolidin-3-yl)amino)-2-oxoacetyl)-1H-pyrrole-3-carboxamide]: the EC50 in data set [1] is under 50 nM. In data set [2], this compound registered a CC50 at 7 days of 0.5 to 4.99 µM.
For the compound `CC(=O)N[C@H]1C[C@@H](NC(=O)C(=O)c2c(C)c(C(=O)Nc3ccc(F)c(C)c3)c(C)n2C)C1` [Example 668, 5-(2-(((1s,3s)-3-acetamidocyclobutyl)amino)-2-oxoacetyl)-N-(4-fluoro-3-methylphenyl)-1,2,4-trimethyl-1H-pyrrole-3-carboxamide], the EC50 in data set [1] is under 50 nM. For the same compound, the CC50 at 7 days in data set [2] is over 30 µM.
In the case of `Cc1cc(NC(=O)c2c(C)c(C(=O)C(=O)N[C@H]3C[C@@H](NS(C)(=O)=O)C3)n(C)c2C)ccc1F` [Example 669, N-(4-fluoro-3-methylphenyl)-1,2,4-trimethyl-5-(2-(((1s,3s)-3-(methylsulfonamido)cyclobutyl)amino)-2-oxoacetyl)-1H-pyrrole-3-carboxamide], the EC50 in data set [1] is under 50 nM. The compound further had a CC50 at 7 days in data set [2] of over 30 µM.
Turning to `CC(=O)N[C@H]1C[C@H](NC(=O)C(=O)c2c(C)c(C(=O)Nc3ccc(F)c(C)c3)c(C)n2C)C1` [Example 670, 5-(2-(((1r,3r)-3-acetamidocyclobutyl)amino)-2-oxoacetyl)-N-(4-fluoro-3-methylphenyl)-1,2,4-trimethyl-1H-pyrrole-3-carboxamide], in data set [1], the EC50 was under 50 nM. In addition, the CC50 at 7 days in data set [2] is over 30 µM.
As for `Cc1cc(NC(=O)c2c(C)c(C(=O)C(=O)N[C@H]3CCNC3=O)n(C)c2C)ccc1F` [Example 671, (S)-N-(4-fluoro-3-emthylphenyl)-1,2,4-trimethyl-5-(2-oxo-2-((2-oxopyrroldin-3-yl)amino)acetyl)-1H-pyrrole-3-carboxamide], the EC50 in data set [1] was under 50 nM. The compound further displayed a CC50 at 7 days in data set [2] of over 30 µM.
In the same order, the values of `Cc1cc(NC(=O)c2c(C)c(C(=O)C(=O)N[C@@H]3CCNC3=O)n(C)c2C)ccc1F` [Example 672, (R)-N-(4-fluoro-3-methylphenyl)-1,2,4-trimethyl-5-(2-oxo-2-((2-oxopyrrolidin-3-yl)amino)acetyl)-1H-pyrole-3-carboxamide] are under 50 nM and over 30 µM.
